Test results published in PubChem BioAssay (NCI).
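How tested: cells in 96-well plates exposed to compound for 48 hours at five concentrations. The concentration for 50% growth inhibition is given as GI50. The concentration for full growth arrest is given as TGI.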

Experiments:
Experiment in all cases: growth of human tumour cells (NCI), 48 h
HCT-15 colon = test system: HCT-15 colon
DU-145 prostate = test system: DU-145 prostate
OVCAR-5 ovarian = test system: OVCAR-5 ovarian
HOP-62 NSCLC = test system: HOP-62 NSCLC
A549 NSCLC = test system: A549 NSCLC
TK-10 renal = test system: TK-10 renal
OVCAR-4 ovarian = test system: OVCAR-4 ovarian
SR leukemia = test system: SR leukemia
SW-620 colon = test system: SW-620 colon
SK-OV-3 ovarian = test system: SK-OV-3 ovarian

Row | SMILES | GI50 (HCT-15 colon) | TGI (HCT-15 colon) | GI50 (DU-145 prostate) | TGI (DU-145 prostate) | GI50 (OVCAR-5 ovarian) | TGI (OVCAR-5 ovarian) | GI50 (HOP-62 NSCLC) | TGI (HOP-62 NSCLC) | GI50 (A549 NSCLC) | TGI (A549 NSCLC) | GI50 (TK-10 renal) | TGI (TK-10 renal) | GI50 (OVCAR-4 ovarian) | TGI (OVCAR-4 ovarian) | GI50 (SR leukemia) | TGI (SR leukemia) | GI50 (SW-620 colon) | TGI (SW-620 colon) | GI50 (SK-OV-3 ovarian) | TGI (SK-OV-3 ovarian)
1 | COc1ccc(-c2nc(-c3nc4ccc(F)cc4[nH]3)c3ccccn23)cc1 | 33.6 µM | > 100 µM | 10.7 µM | 40.2 µM | 45.2 µM | > 100 µM | 7.41 µM | 32.3 µM | 3.96 µM | 28.4 µM | 16.1 µM | 57.9 µM | 6.92 µM | > 100 µM | 6.63 µM | > 100 µM | 22.4 µM | > 100 µM | 10.3 µM | 37.3 µM
2 | COc1cc2c(cc1O)CC1c3c(cc(O)c(OC)c3-2)CCN1C (configuration not stated) |  | > 100 µM |  | > 100 µM |  | > 100 µM |  | > 100 µM |  | > 100 µM |  | > 100 µM |  | > 100 µM |  | > 100 µM |  | > 100 µM |  | > 100 µM
3 | CC1=Cc2ccc(C)cc2C(=O)C1=O |  | 47.1 µM |  | 35.3 µM |  | 37.2 µM |  | 57 µM |  | 50.2 µM |  | 3.68 µM |  | 32 µM |  | 4.38 µM |  | > 100 µM |  | 27 µM
4 | CC(C)Cc1ccc(C(C)CC2=CCC(CN(C)C)C2=O)cc1 (configuration not stated) |  | 7.91 µM |  | 30.2 µM |  | 29.9 µM |  | 36.4 µM |  | 35.2 µM |  | > 22.7 µM |  | 41.6 µM |  | 3.96 µM |  | 4.48 µM |  | 31.7 µM
5 | COc1ccc(C(O)c2cc3c(N)c(C(=O)Nc4cccc(Cl)c4)sc3nc2C)cc1 (configuration not stated) | 1.18 µM | > 49.2 µM | 1.16 µM | > 22 µM | 1.98 µM | > 48.7 µM | 0.617 µM | 19.9 µM | 1.45 µM | > 39.7 µM |  | > 50.3 µM | 2.59 µM | > 51.7 µM | 0.339 µM |  | 1 µM | > 38.3 µM | 1.78 µM | > 40.5 µM
6 | Cc1ccc(N=Nc2c(O)ccc3ccccc23)cc1 |  | > 100 µM |  | > 100 µM |  | > 100 µM |  | > 100 µM |  | > 100 µM |  | > 100 µM |  | > 100 µM |  | > 100 µM |  | > 100 µM |  | > 100 µM
7 | Cc1cc(O)c(C2=NN(c3ccc(S(N)(=O)=O)cc3)C(c3ccc(Cl)cc3)C2)c(C)c1Cl (configuration not stated) | 5.48 µM | 20.8 µM | 5.6 µM | 17.6 µM | 12.3 µM | 24.7 µM | 10.4 µM | 23.3 µM | 5.91 µM | 22.5 µM | 4.48 µM | 18.8 µM | 7.69 µM | 21.2 µM | 1.28 µM | 5.02 µM | 3.72 µM | 15.2 µM | 7.75 µM | 20.6 µM
8 | COc1cc(C)c(C2NC(=O)c3ccccc3N2)cc1C (configuration not stated) |  | 10 µM |  | 11.6 µM |  | > 24.8 µM |  | > 97.1 µM |  | > 100 µM |  | > 100 µM |  | > 82.9 µM |  | > 8.5 µM |  | > 100 µM |  | 
